How the values were obtained:
MDA-MB-231 [1] = assay: drug sensitivity score (DSS), cell viability CellTiter-Glo; higher = more sensitive; extreme values may be limits of the assay; conditions: 72 h
MDA-MB-231 [2] = assay: drug sensitivity score (DSS), cytotoxicity CellTox Green; higher = more cytotoxic; extreme values may be limits of the assay; conditions: 72 h
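For drug sensitivity score (DSS), cytotoxicity CellTox Green in this document: DSS summarises each dose–response curve by combining IC50, EC50, maximal inhibition and efficacy across drug concentrations.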

SMILES | drug sensitivity score (MDA-MB-231 [1]; shRNA: shPPFIA1_1) | drug sensitivity score (MDA-MB-231 [1]; shRNA: shScramble) | drug sensitivity score (MDA-MB-231 [2]; shRNA: shPPFIA1_1) | drug sensitivity score (MDA-MB-231 [2]; shRNA: shScramble)
CC1(C)CCC(CN2CCN(c3ccc(C(=O)NS(=O)(=O)c4ccc(NCC5CCOCC5)c([N+](=O)[O-])c4)c(Oc4cnc5[nH]ccc5c4)c3)CC2)=C(c2ccc(Cl)cc2)C1 [Venetoclax] | 0 DSS | 0 DSS | 0 DSS | 0 DSS
CNC(=O)c1ccccc1Nc1nc(Nc2ccc3c(c2OC)CCC[C@H](N2CCN(CCO)CC2)C3)ncc1Cl | 4 DSS | 6.1 DSS | 8.9 DSS | 0 DSS
COc1ccc(-c2nc(N3CCOCC3)c3sc(CN(C)c4ncc(C(=O)NO)cn4)cc3n2)cn1 [CUDC-907] | 24 DSS | 28 DSS | 23.5 DSS | 24.5 DSS
O=C(c1cc(Cc2n[nH]c(=O)c3ccccc23)ccc1F)N1CCN(C(=O)C2CC2)CC1 [Olaparib] | 0.1 DSS | 0.8 DSS | 0 DSS | 0 DSS
C=CCNC1=C2C[C@@H](C)C[C@H](OC)[C@H](O)[C@@H](C)/C=C(\C)[C@H](OC(N)=O)[C@@H](OC)/C=C\C=C(/C)C(=O)NC(=CC1=O)C2=O [Tanespimycin] | 6.7 DSS | 12.3 DSS | 2 DSS | 3.1 DSS
Cc1nc(Nc2n[nH]c3c2CN(C(=O)N[C@H](CN(C)C)c2ccccc2)C3(C)C)c2sccc2n1 | 5.6 DSS | 10.1 DSS | 5.8 DSS | 4.8 DSS
Cn1ncc(Cl)c1-c1cc(C(=O)N[C@H](CN)Cc2cccc(F)c2)sc1Cl [Afuresertib] | 0.5 DSS | 1.6 DSS | 0 DSS | 0 DSS
Nc1ncnc2c1nc(N)n2[C@@H]1O[C@H](CO)[C@@H](O)[C@H]1O [8-amino-adenosine] | 18.1 DSS | 22.8 DSS | 12.2 DSS | 13.8 DSS
O=C(CCCCCCNC(=O)c1cnc(N(c2ccccc2)c2ccccc2)nc1)NO [Rocilinostat] | 2.1 DSS | 3.5 DSS | 6.7 DSS | 1 DSS
c1ccc([C@H]2CN3CCSC3=N2)cc1 [Levamisole] | 0 DSS | 0 DSS | 0 DSS | 0 DSS
CCn1c(=O)c(-c2cc[nH]n2)cc2c(C)nc(N)nc21 [Voxtalisib] | 0.8 DSS | 4.3 DSS | 0 DSS | 0.2 DSS
CC[C@H](CO)Nc1nc(NCc2ccccc2)c2ncn(C(C)C)c2n1 [Seliciclib] | 0 DSS | 0 DSS | 0 DSS | 0 DSS
NCC(=O)Nc1ccc(-n2nc(C(F)(F)F)cc2-c2ccc3c(ccc4ccccc43)c2)cc1 | 5 DSS | 8.7 DSS | 8 DSS | 7.3 DSS
Cn1ncc(Cl)c1-c1cc(C(=O)N[C@H](CN)Cc2ccc(F)c(F)c2)oc1Cl [Uprosertib] | 0 DSS | 0 DSS | 0 DSS | 0 DSS
CCn1c(=O)c(-c2ccc(Cl)cc2Cl)cc2cnc(Nc3ccc(N4CCNCC4)c(F)c3)nc21 [FRAX486] | 0 DSS | 2.8 DSS | 0 DSS | 0 DSS
CS(=O)(=O)N1CCN(Cc2cc3nc(-c4cccc5[nH]ncc45)nc(N4CCOCC4)c3s2)CC1 [Pictilisib] | 0 DSS | 2.9 DSS | 0 DSS | 0 DSS
CN[C@@H](C)C(=O)N[C@H](C(=O)N1CCC[C@H]1c1nc(C(=O)c2ccc(F)cc2)cs1)C1CCCCC1 [LCL161] | 20.5 DSS | 2.5 DSS | 40.9 DSS | 24.4 DSS
CC(C)C(=O)Nc1ccc([N+](=O)[O-])c(C(F)(F)F)c1 [Flutamide] | 0 DSS | 0.3 DSS | 0 DSS | 0 DSS
COc1c(C)cnc(Cn2cnc3c(Cl)nc(N)nc32)c1C [BIIB021] | 10.8 DSS | 15.9 DSS | 3.1 DSS | 2.8 DSS
CCCCCOC(=O)Nc1nc(=O)n([C@@H]2O[C@H](C)[C@@H](O)[C@H]2O)cc1F [Capecitabine] | 0 DSS | 0 DSS | 0 DSS | 0 DSS
C[C@]1(O)C[C@@H](c2nc(-c3ccc4ccc(-c5ccccc5)nc4c3)c3c(N)nccn32)C1 [Linsitinib] | 0 DSS | 0 DSS | 0 DSS | 0 DSS

SMILES | drug sensitivity score (MDA-MB-231 [1]; shRNA: shPPFIA1_1) | drug sensitivity score (MDA-MB-231 [1]; shRNA: shScramble) | drug sensitivity score (MDA-MB-231 [2]; shRNA: shPPFIA1_1) | drug sensitivity score (MDA-MB-231 [2]; shRNA: shScramble)
C=CC(=O)Nc1cc2c(Nc3ccc(F)c(Cl)c3)ncnc2cc1OCCCN1CCOCC1 [Canertinib] | 2.8 DSS | 4.3 DSS | 3 DSS | 7.7 DSS
O=C(NOCC1CC1)c1ccc(F)c(F)c1Nc1ccc(I)cc1Cl | 1.8 DSS | 7.7 DSS | 6.2 DSS | 8.5 DSS
Cc1cccc(-c2[nH]c(CNc3ccccc3F)nc2-c2ccc3ncnn3c2)n1 [TEW-7197] | 9.1 DSS | 0 DSS | 0.9 DSS | 0 DSS
CN(C)C1CCN(C(=O)c2ccc(NC(=O)Nc3ccc(-c4nc(N5CCOCC5)nc(N5CCOCC5)n4)cc3)cc2)CC1 [Gedatolisib] | 7.2 DSS | 20.8 DSS | 0 DSS | 0 DSS
CCN(CC)C(=S)SSC(=S)N(CC)CC [Disulfiram] | 6.5 DSS | 14.3 DSS | 6.4 DSS | 7 DSS
CCN(CC)CCOc1ccc(C(=C(Cl)c2ccccc2)c2ccccc2)cc1 [Clomifene] | 3.7 DSS | 5.1 DSS | 7.9 DSS | 6.1 DSS
CNC(=O)c1ccc(C)c(-n2c(C)cc(OCc3ccc(F)cc3F)c(Br)c2=O)c1 | 0 DSS | 0 DSS | 0 DSS | 0 DSS
O=C(Nc1ccncc1)C(=O)c1cn(Cc2ccc(Cl)cc2)c2ccccc12 [Indibulin] | 0 DSS | 3.1 DSS | 2.3 DSS | 0 DSS
CC1(C)NC(=O)N(c2ccc([N+](=O)[O-])c(C(F)(F)F)c2)C1=O [Nilutamide] | 0 DSS | 0 DSS | 0 DSS | 0 DSS
Cc1ccccc1C(C(=O)NC1CCCCC1)N(C(=O)Cn1ccnc1C)c1cccc(F)c1 (stereo not drawn) [AGI-5198] | 0 DSS | 0 DSS | 0 DSS | 0 DSS
Cc1[nH]c2ccccc2c1CCNCc1ccc(/C=C/C(=O)NO)cc1 [Panobinostat] | 10.9 DSS | 14 DSS | 11.6 DSS | 11.4 DSS
CCS(=O)(=O)N1CC(CC#N)(n2cc(-c3ncnc4[nH]ccc34)cn2)C1 [Baricitinib] | 0.9 DSS | 0.9 DSS | 0 DSS | 0 DSS
CN(c1ncccc1CNc1nc(Nc2ccc3c(c2)CC(=O)N3)ncc1C(F)(F)F)S(C)(=O)=O | 0.5 DSS | 5.8 DSS | 2.5 DSS | 1.8 DSS
CC(=O)OC[C@H]1O[C@@H]([S-])[C@H](OC(C)=O)[C@@H](OC(C)=O)[C@@H]1OC(C)=O.CCP(CC)CC.[Au+] [Auranofin] | 3.2 DSS | 4.2 DSS | 0 DSS | 0.4 DSS
COc1ccc(-c2ccc3c(N4CCOC[C@@H]4C)nc(N4CCOC[C@@H]4C)nc3n2)cc1CO [AZD8055] | 2.3 DSS | 9.6 DSS | 0 DSS | 0 DSS
Cc1nc(Nc2ncc(C(=O)Nc3c(C)cccc3Cl)s2)cc(N2CCN(CCO)CC2)n1 [Dasatinib] | 0 DSS | 9.3 DSS | 0 DSS | 0 DSS
Nc1cccc2c1CN(C1CCC(=O)NC1=O)C2=O (stereo not drawn) [Lenalidomide] | 0 DSS | 0 DSS | 0 DSS | 0 DSS
CN[C@@H]1C[C@H]2O[C@@](C)([C@@H]1OC)n1c3ccccc3c3c4c(c5c6ccccc6n2c5c31)C(=O)N[C@H]4O [UCN-01] | 17 DSS | 21.4 DSS | 16.6 DSS | 12.2 DSS
Cn1c(=O)c(F)c(Nc2ccc(I)cc2F)c2c(=O)n(C[C@@H](O)CO)cnc21 [TAK-733] | 4.8 DSS | 12.8 DSS | 6.9 DSS | 8.8 DSS
Cc1c(C(=O)Nc2ccc(N3C[C@@H](C)O[C@@H](C)C3)nc2)cccc1-c1ccc(OC(F)(F)F)cc1 [Sonidegib] | 1.1 DSS | 2.4 DSS | 0 DSS | 0 DSS
CC[C@]1(O)C[C@H]2CN(CCc3c([nH]c4ccccc34)[C@@](C(=O)OC)(c3cc4c(cc3OC)N(C=O)[C@H]3[C@@](O)(C(=O)OC)[C@H](OC(C)=O)[C@]5(CC)C=CCN6CC[C@]43[C@@H]65)C2)C1 [Vincristine] | 0 DSS | 8.1 DSS | 4.9 DSS | 6 DSS

SMILES | drug sensitivity score (MDA-MB-231 [1]; shRNA: shPPFIA1_1) | drug sensitivity score (MDA-MB-231 [1]; shRNA: shScramble) | drug sensitivity score (MDA-MB-231 [2]; shRNA: shPPFIA1_1) | drug sensitivity score (MDA-MB-231 [2]; shRNA: shScramble)
NC(=O)Nc1cc(-c2cccc(F)c2)sc1C(=O)N[C@H]1CCCNC1 [AZD7762] | 4.5 DSS | 5.7 DSS | 2.8 DSS | 0.1 DSS
CNC(=O)c1ccccc1Sc1ccc2c(/C=C/c3ccccn3)n[nH]c2c1 [Axitinib] | 0 DSS | 0.2 DSS | 0 DSS | 0 DSS
O=C(O)CC1CC(c2ccccc2)=NO1 (stereo not drawn) [VGX-1027] | 0 DSS | 0 DSS | 0 DSS | 0 DSS
COC1=CC(c2cc3ccccc3[nH]2)=N/C1=C\c1[nH]c(C)cc1C [Obatoclax] | 0 DSS | 0 DSS | 0 DSS | 0 DSS
c1ccc2c(CCNc3ccc(Nc4ccncc4)cc3)c[nH]c2c1 [Serdemetan] | 3 DSS | 0.7 DSS | 0 DSS | 0 DSS
C=CC(=O)Nc1cc(Nc2nccc(-c3cn(C)c4ccccc34)n2)c(OC)cc1N(C)CCN(C)C [Osimertinib] | 1.2 DSS | 3.9 DSS | 0 DSS | 0 DSS
CO[C@@]12[C@H](COC(N)=O)C3=C(C(=O)C(C)=C(N)C3=O)N1C[C@@H]1N[C@@H]12 [Mitomycin C] | 0 DSS | 0 DSS | 0 DSS | 0 DSS
CC[C@@]1(O)C(=O)OCc2c1cc1n(c2=O)Cc2cc3c(CN(C)C)c(O)ccc3nc2-1 [Topotecan] | 0 DSS | 5.8 DSS | 0.8 DSS | 1.5 DSS
CC(C)C[C@@H](C(=O)N[C@H](C(=O)OC1CCCC1)c1ccccc1)[C@H](O)C(=O)NO [Tosedostat] | 4.2 DSS | 2 DSS | 12.4 DSS | 7.8 DSS
CNC(=O)[C@@H](NC(=O)[C@H](CC(C)C)[C@H](O)C(=O)NO)C(C)(C)C [Marimastat] | 0.2 DSS | 0 DSS | 0 DSS | 0 DSS
O=C(c1ccc(/C=C/c2n[nH]c3ccccc23)cc1)N1CCNCC1 [KW-2449] | 0 DSS | 0 DSS | 0 DSS | 0 DSS
CNC(=O)c1ccc(N2C(=S)N(c3ccc(C#N)c(C(F)(F)F)c3)C(=O)C2(C)C)cc1F [Enzalutamide] | 0 DSS | 0 DSS | 0 DSS | 0 DSS
COc1cc(OC2CCN(C)CC2)ccc1Nc1ncc2c(n1)n(C1CCCC1)c(=O)n2C [AZ 3146] | 4.7 DSS | 8.7 DSS | 0.7 DSS | 2.7 DSS
CN1CCN(c2cc(C(=O)Nc3ccc4c(c3)-c3c(c(C(N)=O)nn3-c3ccc(F)cc3)CC4)c(Cl)cn2)CC1 [PHA 408] | 4.2 DSS | 6.3 DSS | 5.2 DSS | 6.9 DSS
CCN(CC)Cc1ccc2cc(COC(=O)Nc3ccc(C(=O)NO)cc3)ccc2c1 [Givinostat] | 0.9 DSS | 4 DSS | 2.4 DSS | 3.4 DSS
COc1nc(N)nc2c1ncn2[C@@H]1O[C@H](CO)[C@@H](O)[C@@H]1O [Nelarabine] | 0 DSS | 0 DSS | 0 DSS | 0 DSS
Cc1nc(-c2cn3c(n2)-c2ccc(-c4cnn(C(C)(C)C(N)=O)c4)cc2OCC3)n(C(C)C)n1 [Taselisib] | 0 DSS | 0.9 DSS | 0 DSS | 0 DSS
Cc1cnc(-c2ccccc2C(C)C)nc1NCc1ccc(-n2ccnn2)cc1 [ML323] | 0 DSS | 1.7 DSS | 0 DSS | 0 DSS
CN1CCc2c(c3ccccc3n2Cc2ccc(C(=O)NO)cc2)C1 [Tubastatin A] | 0 DSS | 1 DSS | 0.1 DSS | 0 DSS
CCC(C)(C)C(=O)O[C@H]1C[C@@H](C)C=C2C=C[C@H](C)[C@H](CC[C@@H]3C[C@@H](O)CC(=O)O3)[C@H]21 [Simvastatin] | 0 DSS | 2.8 DSS |  | 
Cc1ccc(C(=O)Nc2ccc(CN3CCN(C)CC3)c(C(F)(F)F)c2)cc1C#Cc1cnc2cccnn12 [Ponatinib] | 0.1 DSS | 3.6 DSS |  | 

— the supplement of paper PMC10920090
